Data reported in article PMC7496960, “Nonanal modulates oviposition preference in female Helicoverpa assulta (Lepidoptera: Noctuidae) via the activation of peripheral neurons” (Pest Management Science, 2020).

Tested on: T1, HassOR67/Orco (HassOR67/HassOrco; OR67)
T1 construct: full-length ORF from antennal cDNA in pT7Ts; cRNA co-injected with Orco cRNA into Xenopus laevis oocytes; with Odorant receptor coreceptor
Experiment: two-electrode voltage clamp, Xenopus oocytes
Assay type: cell-based, Helicoverpa assulta
Details: co-expressed with Orco; agonist; holding potential −80 mV; 1 × 10^−7 to 1 × 10^−3 M

- EC50: 8.49 µM
SMILES: CCCCCCCCC=O [nonanal]
